In patent US20120101169A1, “METHODS OF PROVIDING ANTICOAGULATION EFFECTS IN SUBJECTS” (Penwest Pharmaceuticals Co., priority 2010, published 2012):
Where two headings read alike, the source gives them in different places. Marks after values point to notes of the source that are not given here.

Assays:
[1] = Safety and tolerability of (R,R,R) α-tocopherol quinone in healthy male and female subjects (Example 1); conditions: high and moderate fat meal
Procedure: The safety and tolerability of (R,R,R) α-tocopherol quinone was tested in healthy male and female subjects. Twelve subjects were divided into two groups of six subjects each (Groups A and B). Group A was administered 1.5 g of a (R,R,R) α-tocopherol quinone twice a day for one day. Group B was administered 1.0 g of (R,R,R) α-tocopherol quinone three times a day for 1 day. Both groups of subjects were fed under high and moderate fat meal content.

[2] = Single-dose ascending-dose pharmacokinetics of ATQ in healthy volunteers (Example 4); conditions: for CL/F: fed conditions, mean
Procedure: Healthy adult male subjects were enrolled into 1 of 6 cohorts of 10 subjects, and randomly assigned to receive either alpha-tocopherolquinone (ATQ) (8 subjects) in olive oil or placebo (2 subjects). Safety, tolerability and PK characteristics of ATQ were assessed under fasted conditions (low dose of 0.25 g and 0.5 g) and fed conditions (range of 0.5 g to 6.0 g), during co-administration with 400 IU vitamin E (2.0 g), and following a 2.2 g total dose administered in 3 equally-divided doses of 0.735 g, and 7 hours apart. There was a 2-week interval between dosing of cohorts while a medical review of the data collected on the preceding dose was conducted. Blood samples for the measurement of ATQ concentration were collected pre-dose and up to 168 hours following dose administration. All plasma ATQ concentrations were determined using a GLP validated bioanalytical method. Blood samples for the measurement of vitamin E concentrations were collected prior to and at 24 hours following dose administration (Cohorts 1, 2, and 3) and serially for up to 24 hours in Cohorts 4 through 6 except for Cohort 4, Period 2 (vitamin E co-administration) where samples were collected for up to 96 hours. Urine was collected for the measurement of ATQ and its metabolites in pooled intervals up to 72 hours post-dose for all cohorts.

[3] = Food-effect and regimen pharmacokinetics, single 3-g daily ATQ dose (Example 5 Part 1); format: in vivo, human; conditions: for Cmax / AUC(0-inf) / Vd/F / half-life / Tmax: male, human, plasma, oral, 3 g; for Vd/F: read-out: Vz/F
Procedure: The study was conducted in 2 parts. Part 1 was conducted in healthy male subjects only while Part 2 was conducted in healthy male and female subjects. The intent of this study part was to optimize the dosage regimen and diet for the multiple-dose safety and tolerance Part 2 of the study. All plasma ATQ concentrations were determined using a GLP validated bioanalytical method. ATQ was administered as an oral solution in oil (0.49 g/mL). The placebo solution consisted of olive oil alone.
The dose of 3-g ATQ was selected for Part 1 as it most likely represented the high end of the exposure spectrum selected for the subsequent tolerance trial. For Part 1, serial blood samples for the measurement of the plasma levels of ATQ were collected prior to and following each oral dose administered on Day 1 through 36 hours following the morning dose on Day 1 (or 24 hours post-evening dose).

protein S = experiment: Extended coagulation biomarker panel: protein S; format: in vivo, human; conditions: Part 2, 0.67 g TID, Day 4
From the text: (§1) In Part 1 the extended panel was collected at screening and at check-in (Day −1) and Day 2 of each period unless the study results warranted a different sampling schedule. In Part 2, the same of the exploratory coagulation biomarkers were collected at screening, check-in, Day 4, and Day 8 in Cohorts 1 and 2, or at check-in, Day 7, and Day 14 in Cohorts 3 and 4 with the following exception: in Cohorts 3 and 4, platelet function was collected at check-in only or when medically indicated.

factor II (prothrombin) = experiment: Extended coagulation biomarker panel: factor II; format: in vivo, human; conditions: Part 2, 0.67 g TID, Day 4
From the text: as §1

[4] = 3-g BID, high-fat meal, mean, N = 6
[5] = 3-g BID, standard meal, mean, N = 6
[6] = 3-g TID, high-fat meal, mean, N = 5
[7] = 3-g TID, standard meal, mean, N = 6

Structure (SMILES): CC1=C(C)C(=O)C(CC[C@](C)(O)CCC[C@H](C)CCC[C@H](C)CCCC(C)C)=C(C)C1=O [ATQ, alpha-tocopherolquinone]
- Safety and tolerability (side effects) ([1]; Group A: 1.5 g twice a day for one day): no side effects were observed
- Safety and tolerability (side effects) ([1]; Group B: 1.0 g three times a day for 1 day): no side effects were observed
- Increase in bioavailability with a high-fat meal ([2]; 0.5 g with high-fat meal versus fasted): over 60 fold
- ATQ concentration versus time profile with and without vitamin E ([2]; 2 g QD dose, with and without 400-IU of vitamin E): essentially unchanged
- CL/F ([2]; 2.2 g (0.735 g TID), N = 8): 22.731 L/h
- Effect of dividing the dose on ATQ bioavailability ([2]; 2.2 g as 3 doses of 0.735 g 7 hours apart rather than a single unit): significantly increased ATQ bioavailability
- Baseline-adjusted ATQ concentration at 24 hours as share of Cmax ([2]; 24 hours post-dose): less than 1%
- Tmax ([2]; male, human, plasma, oral): 6 h
- Time for ATQ concentrations to return to endogenous baseline levels ([2]; post-dose): ≤ 24 h
- CL/F ([2]; single 0.5 g dose, N = 6): 25.910[b] L/h
- CL/F ([2]; single 1.0 g dose, N = 7): 15.950[c] L/h
- CL/F ([2]; single 2.0 g dose, N = 7): 33.404[c] L/h
- CL/F ([2]; single 6.0 g dose, N = 6): 62.824[b] L/h
- Dose proportionality of absorption ([2]; single doses 0.5 g to 6.0 g after high-fat breakfast): dose proportional between 0.5 g and 1 g but was blunted at higher doses
- Absorption under fasted conditions ([2]; single oral doses 0.25 g and 0.5 g, fasted): poorly absorbed
- Unchanged ATQ in urine samples ([2]; urine collected up to 72 hours post-dose): not detected
- CLpo [3, 4]: 21.4 L/h
- CLpo [3, 5]: 22.0 L/h
- CLpo [3, 6]: 18.2 L/h
- CLpo [3, 7]: 18.1 L/h
- Overall exposure (AUC) BID versus TID ([3]; 3-g dose as 2×1.5-g every 12 hours or 3×1.0-g every 6 hours): similar
- Cmax ([3]; 3-g BID (2×1.5 g 12 h apart), high-fat meal, baseline-adjusted, mean, N = 6, read-out: Cmax): 13400 ng/mL
- Cmax ([3]; 3-g BID (2×1.5 g 12 h apart), standard meal, baseline-adjusted, mean, N = 6, read-out: Cmax): 15300 ng/mL
- AUC(0-inf) ([3]; 3-g BID, high-fat meal, baseline-adjusted, mean, N = 6): 152 µg·h/mL
- Vd/F [3, 4]: 132 L
- half-life ([3]; 3-g BID, high-fat meal, mean, N = 6, read-out: t1/2 (converted)): 252 min
- Tmax ([3]; 3-g BID, high-fat meal, median, N = 6, read-out: Tmax): 10.5 h
- AUC(0-inf) ([3]; 3-g BID, standard meal, baseline-adjusted, mean, N = 6): 157 µg·h/mL
- Vd/F [3, 5]: 143 L
- half-life ([3]; 3-g BID, standard meal, mean, N = 6, read-out: t1/2 (converted)): 260 min
- Tmax ([3]; 3-g BID, standard meal, median, N = 6, read-out: Tmax): 6 h
- Cmax ([3]; 3-g TID (3×1.0 g 6 h apart), high-fat meal, baseline-adjusted, mean, N = 5, read-out: Cmax): 14200 ng/mL
- Cmax ([3]; 3-g TID (3×1.0 g 6 h apart), standard meal, baseline-adjusted, mean, N = 6, read-out: Cmax): 15000 ng/mL
- AUC(0-inf) ([3]; 3-g TID, high-fat meal, baseline-adjusted, mean, N = 5): 178 µg·h/mL
- Vd/F [3, 6]: 122 L
- half-life ([3]; 3-g TID, high-fat meal, mean, N = 5, read-out: t1/2 (converted)): 293 min
- Tmax ([3]; 3-g TID, high-fat meal, median, N = 5, read-out: Tmax): 17.5 h
- AUC(0-inf) ([3]; 3-g TID, standard meal, baseline-adjusted, mean, N = 6): 169 µg·h/mL
- Vd/F [3, 7]: 139 L
- half-life ([3]; 3-g TID, standard meal, mean, N = 6, read-out: t1/2 (converted)): 322 min
- Tmax ([3]; 3-g TID, standard meal, median, N = 6, read-out: Tmax): 12.7 h
- Cmax ([3]; single 3-g daily dose, across treatments, read-out: mean Cmax range): 13400 to 15300 ng/mL
- half-life ([3]; single 3-g daily dose, across treatments, read-out: mean t1/2 values (range across treatments)): 252 to 322 min
- Tmax ([3]; single 3-g daily dose, across treatments, read-out: median Tmax (range across treatments)): 6 to 17.5 h
- ATQ exposure (Cmax and AUC) high-fat versus standard meal ([3]; single 3-g daily dose): no difference
- Decrease from baseline activity of protein S (protein S): 56%
- Decrease from baseline activity of factor II (factor II (prothrombin)): 51%
